The test system of one experiment is Streptococcus pneumoniae. The experiment can be described thus: In vitro antimicrobial activity against Streptococcus pneumoniae. In kind it is functional.
Another experiment has as its system Enterococcus faecium. The experiment can be described thus: In vitro antimicrobial activity against Streptococcus faecium X66. In kind it is functional, streptococcus fae-cium.
Experiment [1] deals with Streptococcus pyogenes. The experiment can be described thus: In vivo effective dose against experimental infections in rodent caused by Streptococcus pyogenes C203 when administered orally. It counts as functional. To be noted: po.
For the next experiment, the system named is Staphylococcus aureus. The experiment can be described thus: In vitro antimicrobial activity against Staphylococcus aureus X1. It counts as functional.
Another experiment concerns Haemophilus influenzae. The experiment can be described thus: In vitro antimicrobial activity against Haemophilus influenzae. It counts as functional.
The test system of experiment [2] is Streptococcus pyogenes. The experiment can be described thus: In vivo effective dose against experimental infections in rodent caused by Streptococcus pyogenes C203 when administered sc. It counts as functional.
For experiment [3], the system named is Staphylococcus epidermidis. The experiment can be described thus: In vitro antimicrobial activity against Staphylococcus epidermidis EPI1. In kind it is functional.
For experiment [4], the system named is Streptococcus pyogenes. The experiment can be described thus: In vitro antimicrobial activity against Streptococcus pyogenes C203. It counts as functional.

Converted amounts (≈) assume the structure as drawn.

For orientation: ED50 means the dose that gives a 50% effect, or the effect in half of the subjects. A higher ED50 goes with weaker potency.

For `CC[C@H]1OC(=O)C[C@@H](O)[C@H](C)[C@@H](O[C@@H]2O[C@H](C)[C@@H](O)[C@H](N(C)C)[C@H]2O)[C@@H](CCOc2ccccc2)C[C@@H](C)C(=O)/C=C/C(C)=C/[C@@H]1CO[C@@H]1O[C@H](C)[C@@H](O)[C@@H](O)[C@H]1OC`, the MIC with Streptococcus pneumoniae worked out at 1 µg/mL (≈ 1.2 µM); in the experiment on Enterococcus faecium, 4 µg/mL (≈ 4.78 µM); in the experiment on Staphylococcus aureus, 0.25 µg/mL (≈ 0.299 µM); in the experiment on Haemophilus influenzae it was 32 µg/mL (≈ 38.3 µM); in experiment [3], 0.25 µg/mL (≈ 0.299 µM); against Streptococcus pyogenes [4], 0.25 µg/mL (≈ 0.299 µM). Besides, the ED50 was found to be 50 mg/kg in the experiment on Streptococcus pyogenes [1] and 3.2 mg/kg in the experiment on Streptococcus pyogenes [2].
With `CCOC(C[C@H]1C[C@@H](C)C(=O)/C=C/C(C)=C/[C@H](CO[C@@H]2O[C@H](C)[C@@H](O)[C@@H](OC)[C@H]2OC)[C@@H](CC)OC(=O)C[C@@H](O)[C@H](C)[C@H]1O[C@@H]1O[C@H](C)[C@@H](O)[C@H](N(C)C)[C@H]1O)OCC`, the MIC with Streptococcus pneumoniae stood at 4 µg/mL (≈ 4.73 µM); in the experiment with Enterococcus faecium it was 8 µg/mL (≈ 9.46 µM); in the experiment with Staphylococcus aureus it was 0.5 µg/mL (≈ 0.591 µM); against Haemophilus influenzae it was 16 µg/mL (≈ 18.9 µM); in experiment [3] it was 1 µg/mL (≈ 1.18 µM); in the experiment with Streptococcus pyogenes [4], 0.5 µg/mL (≈ 0.591 µM). The figures for the ED50 with Streptococcus pyogenes [1] and with Streptococcus pyogenes [2] were 35 mg/kg and 3.4 mg/kg, respectively.
As to `CC[C@H]1OC(=O)C[C@@H](O)[C@H](C)[C@@H](O[C@@H]2O[C@H](C)[C@@H](O)[C@H](N(C)C)[C@H]2O)[C@@H](CCNCCc2ccccc2)C[C@@H](C)C(=O)/C=C/C(C)=C/[C@@H]1CO`, the MIC came to 1 µg/mL (≈ 1.42 µM) against Streptococcus pneumoniae; 8 µg/mL (≈ 11.4 µM) against Enterococcus faecium; 4 µg/mL (≈ 5.69 µM) in the experiment with Staphylococcus aureus; 8 µg/mL (≈ 11.4 µM) in the experiment on Haemophilus influenzae; 4 µg/mL (≈ 5.69 µM) in experiment [3]; 2 µg/mL (≈ 2.85 µM) against Streptococcus pyogenes [4]. The results for the ED50 with Streptococcus pyogenes [1] and in the experiment on Streptococcus pyogenes [2] were above 100 mg/kg and 7.2 mg/kg, respectively.
Regarding `CC[C@H]1OC(=O)C[C@@H](O)[C@H](C)[C@@H](O[C@@H]2O[C@H](C)[C@@H](O)[C@H](N(C)C)[C@H]2O)[C@@H](CCO)C[C@@H](C)C(=O)/C=C/C(C)=C/[C@@H]1CO[C@@H]1O[C@H](C)[C@@H](O)[C@@H](O)[C@H]1OC`, the MIC against Streptococcus pneumoniae amounted to 2 µg/mL (≈ 2.63 µM); in the experiment on Enterococcus faecium, 64 µg/mL (≈ 84.2 µM); with Staphylococcus aureus, 8 µg/mL (≈ 10.5 µM); with Haemophilus influenzae, 32 µg/mL (≈ 42.1 µM); in experiment [3], 4 µg/mL (≈ 5.26 µM); in the experiment with Streptococcus pyogenes [4], 2 µg/mL (≈ 2.63 µM). For the same compound, the ED50 in the experiment on Streptococcus pyogenes [1] was above 100 mg/kg; in the experiment on Streptococcus pyogenes [2], 8.9 mg/kg.
Take `CC[C@H]1OC(=O)C[C@@H](O)[C@H](C)[C@@H](O[C@@H]2O[C@H](C)[C@@H](O)[C@H](N(C)C)[C@H]2O)[C@@H](CCN)C[C@@H](C)C(=O)/C=C/C(C)=C/[C@@H]1CO[C@@H]1O[C@H](C)[C@@H](O)[C@@H](OC)[C@H]1OC`: the MIC turned out to be 32 µg/mL (≈ 41.4 µM) with Streptococcus pneumoniae; 128 µg/mL (≈ 166 µM) against Enterococcus faecium; 4 µg/mL (≈ 5.17 µM) in the experiment with Staphylococcus aureus; 128 µg/mL (≈ 166 µM) with Haemophilus influenzae; 8 µg/mL (≈ 10.3 µM) in experiment [3]; 32 µg/mL (≈ 41.4 µM) against Streptococcus pyogenes [4]. Besides, the ED50 in the experiment on Streptococcus pyogenes [1] is above 100 mg/kg; in the experiment on Streptococcus pyogenes [2] it was above 10 mg/kg.
Turning to `CC[C@H]1OC(=O)C[C@@H](O)[C@H](C)[C@@H](O[C@@H]2O[C@H](C)[C@@H](O)[C@H](N(C)C)[C@H]2O)[C@@H](CCOc2ccc(CN3CCCCCC3)cc2)C[C@@H](C)C(=O)/C=C/C(C)=C/[C@@H]1CO[C@@H]1O[C@H](C)[C@@H](O)[C@@H](OC)[C@H]1OC`, the MIC was found to be 1 µg/mL (≈ 1.04 µM) against Streptococcus pneumoniae; 8 µg/mL (≈ 8.32 µM) against Enterococcus faecium; 0.5 µg/mL (≈ 0.52 µM) against Staphylococcus aureus; 32 µg/mL (≈ 33.3 µM) against Haemophilus influenzae; 0.5 µg/mL (≈ 0.52 µM) in experiment [3]; 0.5 µg/mL (≈ 0.52 µM) against Streptococcus pyogenes [4]. The ED50 in the experiment on Streptococcus pyogenes [1] is 27 mg/kg; with Streptococcus pyogenes [2], 1.9 mg/kg.
Turning to `CC[C@H]1OC(=O)C[C@@H](O)[C@H](C)[C@@H](O[C@@H]2O[C@H](C)[C@@H](O)[C@H](N(C)C)[C@H]2O)[C@@H](CCOc2ccc(CO)cc2)C[C@@H](C)C(=O)/C=C/C(C)=C/[C@@H]1CO[C@@H]1O[C@H](C)[C@@H](O)[C@@H](OC)[C@H]1OC`, the MIC in the experiment with Streptococcus pneumoniae was 2 µg/mL (≈ 2.27 µM); with Enterococcus faecium it was 16 µg/mL (≈ 18.2 µM); against Staphylococcus aureus it was 0.5 µg/mL (≈ 0.568 µM); against Haemophilus influenzae, 64 µg/mL (≈ 72.7 µM); in experiment [3], 0.5 µg/mL (≈ 0.568 µM); in the experiment on Streptococcus pyogenes [4], 0.5 µg/mL (≈ 0.568 µM). Also, the results for the ED50 with Streptococcus pyogenes [1] and in the experiment with Streptococcus pyogenes [2] were 44 mg/kg and 5 mg/kg, respectively.
As for `CC[C@H]1OC(=O)C[C@@H](O)[C@H](C)[C@@H](O[C@@H]2O[C@H](C)[C@@H](O)[C@H](N(C)C)[C@H]2O)[C@@H](CCO)C[C@@H](C)C(=O)/C=C/C(C)=C/[C@@H]1CO[C@@H]1O[C@H](C)[C@@H](O)[C@@H](OC)[C@H]1OC`, the MIC against Streptococcus pneumoniae was 4 µg/mL (≈ 5.17 µM); with Enterococcus faecium it was 32 µg/mL (≈ 41.3 µM); against Staphylococcus aureus, 2 µg/mL (≈ 2.58 µM); with Haemophilus influenzae it was 32 µg/mL (≈ 41.3 µM); in experiment [3], 2 µg/mL (≈ 2.58 µM); against Streptococcus pyogenes [4], 4 µg/mL (≈ 5.17 µM). The ED50 in the experiment with Streptococcus pyogenes [1] is above 100 mg/kg; in the experiment with Streptococcus pyogenes [2] it was 2.1 mg/kg.
As for `CC[C@H]1OC(=O)C[C@@H](O)[C@H](C)[C@@H](O[C@@H]2O[C@H](C)[C@@H](O)[C@H](N(C)C)[C@H]2O)[C@@H](CCOc2cc(Cl)cc(Cl)c2)C[C@@H](C)C(=O)/C=C/C(C)=C/[C@@H]1CO[C@@H]1O[C@H](C)[C@@H](O)[C@@H](OC)[C@H]1OC`, the MIC with Streptococcus pneumoniae was found to be 1 µg/mL (≈ 1.09 µM); in the experiment on Enterococcus faecium, 4 µg/mL (≈ 4.35 µM); in the experiment with Staphylococcus aureus, 0.25 µg/mL (≈ 0.272 µM); in the experiment on Haemophilus influenzae, 32 µg/mL (≈ 34.8 µM); in experiment [3], 0.25 µg/mL (≈ 0.272 µM); in the experiment on Streptococcus pyogenes [4], 0.12 µg/mL (≈ 0.131 µM). For the same compound, the results for the ED50 in the experiment with Streptococcus pyogenes [1] and in the experiment on Streptococcus pyogenes [2] were 31 mg/kg and above 10 mg/kg, respectively.
On to `CC[C@H]1OC(=O)C[C@@H](O)[C@H](C)[C@@H](O[C@@H]2O[C@H](C)[C@@H](O[C@H]3C[C@@](C)(O)[C@@H](O)[C@H](C)O3)[C@H](N(C)C)[C@H]2O)[C@@H](CCOc2ccccc2)C[C@@H](C)C(=O)/C=C/C(C)=C/[C@@H]1CO[C@@H]1O[C@H](C)[C@@H](O)[C@@H](O)[C@H]1OC`, for which the MIC is 32 µg/mL (≈ 32.6 µM) in the experiment on Streptococcus pneumoniae; above 128 µg/mL against Enterococcus faecium; 2 µg/mL (≈ 2.04 µM) with Staphylococcus aureus; above 128 µg/mL with Haemophilus influenzae; 2 µg/mL (≈ 2.04 µM) in experiment [3]; 4 µg/mL (≈ 4.08 µM) against Streptococcus pyogenes [4]. The figures for the ED50 in the experiment on Streptococcus pyogenes [1] and in the experiment on Streptococcus pyogenes [2] were 91 mg/kg and above 10 mg/kg, respectively.
For `CC[C@H]1OC(=O)C[C@@H](O)[C@H](C)[C@@H](O[C@@H]2O[C@H](C)[C@@H](O)[C@H](N(C)C)[C@H]2O)[C@@H](CCOc2cccnc2)C[C@@H](C)C(=O)/C=C/C(C)=C/[C@@H]1CO[C@@H]1O[C@H](C)[C@@H](O)[C@@H](OC)[C@H]1OC`, the MIC in the experiment on Streptococcus pneumoniae was 2 µg/mL (≈ 2.35 µM); against Enterococcus faecium, 16 µg/mL (≈ 18.8 µM); in the experiment on Staphylococcus aureus it was 0.5 µg/mL (≈ 0.588 µM); against Haemophilus influenzae, 16 µg/mL (≈ 18.8 µM); in experiment [3], 0.5 µg/mL (≈ 0.588 µM); with Streptococcus pyogenes [4], 2 µg/mL (≈ 2.35 µM). In addition, the results for the ED50 with Streptococcus pyogenes [1] and in the experiment on Streptococcus pyogenes [2] were 50 mg/kg and 3.9 mg/kg, respectively.
As to `CC[C@H]1OC(=O)C[C@@H](O)[C@H](C)[C@@H](O[C@@H]2O[C@H](C)[C@@H](O)[C@H](N(C)C)[C@H]2O)[C@@H](CCI)C[C@@H](C)C(=O)/C=C/C(C)=C/[C@@H]1CO[C@@H]1O[C@H](C)[C@@H](O)[C@@H](OC)[C@H]1OC`, the MIC turned out to be 4 µg/mL (≈ 4.53 µM) with Streptococcus pneumoniae; 16 µg/mL (≈ 18.1 µM) against Enterococcus faecium; 0.5 µg/mL (≈ 0.566 µM) against Staphylococcus aureus; 32 µg/mL (≈ 36.2 µM) in the experiment on Haemophilus influenzae; 0.25 µg/mL (≈ 0.283 µM) in experiment [3]; 0.5 µg/mL (≈ 0.566 µM) against Streptococcus pyogenes [4]. Besides, the ED50 came to 19 mg/kg in the experiment with Streptococcus pyogenes [1] and 4.3 mg/kg in the experiment with Streptococcus pyogenes [2].

The values are drawn from ChEMBL document CHEMBL1124186, “Synthesis and evaluation of tylosin-related macrolides modified at the aldehyde function: a new series of orally effective antibiotics” (1988).
